Test [1] concerns Mycobacterium tuberculosis. The format is functional. To be noted: dose 15 mg/kg; route oral.
In test [2] the test system is Mycobacterium tuberculosis. The format is functional. The settings on record: dose 10 mg/kg; route oral.
The test system of test [3] is Mycobacterium tuberculosis. The format is functional. The settings on record: dose 5 mg/kg; route oral.
The subject of test [4] is Mycobacterium tuberculosis. In kind it is functional, Spleen. To be noted: dose 15 mg/kg; route oral.
Test [5] deals with Mycobacterium tuberculosis. In kind it is functional, Spleen. The settings on record: dose 10 mg/kg; route oral.
Test [6] relates to Mycobacterium tuberculosis. In kind it is functional, Spleen. To be noted: dose 5 mg/kg; route oral.

The structures appear in SMILES notation.

In the case of `COc1nc2ccc(Br)cc2cc1[C@@H](c1ccccc1)[C@](O)(CCN(C)C)c1cccc(F)c1`, the CFU stood at 46 in test [1], 251 in test [2] and 358 in test [3]. Also, the log10cfu was 0.93 in test [1]; 1.29 in test [2]; 2.27 in test [3]; 0.98 in test [4]; 0.46 in test [5]; 0.54 in test [6].

For the origin of these results see ChEMBL document CHEMBL1143403, “Location of persisting mycobacteria in a Guinea pig model of tuberculosis revealed by r207910” (2007).
